Data as given in patent US9340590B2 (priority 2011, dated 2016).
Where two headings read alike, the source gives them in different places. Positions of bridges follow the written chain, without caps; N, C: chain ends. Residues, ends and D or L forms follow the SMILES beside them.

Molecular target: hNav1.7 (Homo sapiens, UniProt Q15858)
Experiment: cell-based
Assay type: cell-based
Settings: read-out: IWQ Use Nav1.7

Sequence of hNav1.7 (Q15858 whole entry, looked up): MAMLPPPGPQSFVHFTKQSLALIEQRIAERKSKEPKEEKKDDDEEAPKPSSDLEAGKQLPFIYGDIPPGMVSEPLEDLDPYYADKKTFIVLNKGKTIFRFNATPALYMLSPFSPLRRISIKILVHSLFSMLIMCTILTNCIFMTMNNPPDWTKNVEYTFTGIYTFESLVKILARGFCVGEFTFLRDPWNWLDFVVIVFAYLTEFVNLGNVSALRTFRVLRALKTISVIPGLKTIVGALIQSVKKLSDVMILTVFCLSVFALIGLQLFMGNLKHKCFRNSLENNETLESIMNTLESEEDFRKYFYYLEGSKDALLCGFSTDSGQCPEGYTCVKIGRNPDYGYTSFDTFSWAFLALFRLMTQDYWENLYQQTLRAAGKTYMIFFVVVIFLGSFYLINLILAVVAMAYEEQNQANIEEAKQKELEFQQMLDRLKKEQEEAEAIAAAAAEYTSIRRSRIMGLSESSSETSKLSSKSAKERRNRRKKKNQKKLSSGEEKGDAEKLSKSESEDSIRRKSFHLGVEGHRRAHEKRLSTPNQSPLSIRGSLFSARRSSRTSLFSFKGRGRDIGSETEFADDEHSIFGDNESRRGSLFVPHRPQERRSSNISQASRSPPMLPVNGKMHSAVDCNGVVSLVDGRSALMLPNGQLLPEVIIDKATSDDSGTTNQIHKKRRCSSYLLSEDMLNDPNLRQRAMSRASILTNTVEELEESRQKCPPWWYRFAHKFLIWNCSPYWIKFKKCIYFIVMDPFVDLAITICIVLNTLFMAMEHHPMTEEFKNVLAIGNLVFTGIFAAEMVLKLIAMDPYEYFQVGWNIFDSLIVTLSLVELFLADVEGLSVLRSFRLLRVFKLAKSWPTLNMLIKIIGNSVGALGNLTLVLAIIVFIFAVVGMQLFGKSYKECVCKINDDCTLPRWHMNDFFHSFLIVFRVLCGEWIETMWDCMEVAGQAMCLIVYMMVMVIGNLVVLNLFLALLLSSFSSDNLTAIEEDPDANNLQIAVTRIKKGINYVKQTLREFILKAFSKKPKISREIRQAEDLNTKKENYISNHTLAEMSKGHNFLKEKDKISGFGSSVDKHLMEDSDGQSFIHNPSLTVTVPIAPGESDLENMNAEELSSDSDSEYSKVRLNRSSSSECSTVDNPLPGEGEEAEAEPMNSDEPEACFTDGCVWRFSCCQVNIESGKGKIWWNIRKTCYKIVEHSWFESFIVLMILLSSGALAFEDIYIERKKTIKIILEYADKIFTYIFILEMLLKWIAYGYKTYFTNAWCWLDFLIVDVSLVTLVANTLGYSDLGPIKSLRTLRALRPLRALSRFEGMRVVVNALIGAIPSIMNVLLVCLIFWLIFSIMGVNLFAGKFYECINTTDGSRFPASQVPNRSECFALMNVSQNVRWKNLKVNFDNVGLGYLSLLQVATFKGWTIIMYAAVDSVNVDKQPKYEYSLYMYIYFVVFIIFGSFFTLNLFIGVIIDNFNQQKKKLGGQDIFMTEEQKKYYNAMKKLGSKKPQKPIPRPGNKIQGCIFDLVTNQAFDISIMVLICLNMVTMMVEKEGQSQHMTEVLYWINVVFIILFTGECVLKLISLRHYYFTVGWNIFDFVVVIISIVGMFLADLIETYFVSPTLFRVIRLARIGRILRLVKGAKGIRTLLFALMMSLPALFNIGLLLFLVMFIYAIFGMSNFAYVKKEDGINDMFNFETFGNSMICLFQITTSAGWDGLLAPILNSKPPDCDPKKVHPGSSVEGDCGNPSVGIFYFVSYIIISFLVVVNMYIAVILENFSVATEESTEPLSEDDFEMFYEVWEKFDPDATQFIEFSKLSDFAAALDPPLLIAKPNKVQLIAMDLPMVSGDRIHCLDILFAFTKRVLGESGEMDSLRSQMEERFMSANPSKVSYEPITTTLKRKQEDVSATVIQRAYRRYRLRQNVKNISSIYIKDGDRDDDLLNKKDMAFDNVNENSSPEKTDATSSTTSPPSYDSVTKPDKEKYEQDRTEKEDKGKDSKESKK

SMILES | IC50 | IC50 (IonWorks Quattro, Use) | other results
CC[C@H](C)[C@@H]1NC(=O)[C@@H]2CSSC[C@@H]3NC(=O)[C@H](C(C)C)NC(=O)[C@H](CC(C)C)NC(=O)[C@H](CC(N)=O)NC(=O)[C@H](CCCCN)NC(=O)[C@H](CCCNC(=N)N)NC(=O)[C@H](CSSC[C@H](NC(=O)[C@@H](N)CC(=O)O)C(=O)N[C@@H](CC(C)C)C(=O)NCC(=O)N[C@@H](Cc4ccccc4)C(=O)N[C@@H](CCSC)C(=O)N[C@@H](CCCNC(=N)N)C(=O)N[C@@H](CCCCN)C(=O)N2)NC(=O)[C@H](CSSC[C@@H](C(=O)N[C@@H](CCCCN)C(=O)N[C@@H](Cc2ccc(O)cc2)C(=O)N[C@H](C(=O)N[C@@H](Cc2ccccc2)C(N)=O)C(C)C)NC(=O)[C@H](Cc2c[nH]c4ccccc24)NC(=O)[C@H](CCCCN)NC(=O)[C@H](Cc2c[nH]cn2)NC(=O)[C@H]([C@@H](C)O)NC(=O)[C@H](CCCNC(=N)N)NC(=O)[C@H](CO)NC3=O)NC(=O)[C@H](CCCCN)NC(=O)[C@H](CC(=O)O)NC(=O)[C@H](CC(N)=O)NC(=O)[C@H](CC(=O)O)NC(=O)[C@@H]2CCCN2C1=O [compound 50] (H-DCLGFMRKCIPDNDKCCRKNLVCSRTHKWCKYVF-NH2; disulfide 2-17, 9-23, 16-30) | 120 nM | – | –
CC[C@H](C)[C@@H]1NC(=O)[C@@H]2CSSC[C@@H]3NC(=O)[C@H](C(C)C)NC(=O)[C@H](CC(C)C)NC(=O)[C@H](CC(N)=O)NC(=O)[C@@H]4CCCN4C(=O)[C@H](CCCNC(=N)N)NC(=O)[C@H](CSSC[C@H](NC(=O)[C@@H](N)CC(=O)O)C(=O)N[C@@H](CC(C)C)C(=O)NCC(=O)N[C@@H](Cc4ccccc4)C(=O)N[C@@H](CCSC)C(=O)N[C@@H](CCCNC(=N)N)C(=O)N[C@@H](CCCCN)C(=O)N2)NC(=O)[C@H](CSSC[C@@H](C(=O)N[C@@H](CCCCN)C(=O)N[C@@H](Cc2ccc(O)cc2)C(=O)N[C@H](C(=O)N[C@@H](Cc2ccccc2)C(N)=O)C(C)C)NC(=O)[C@H](Cc2c[nH]c4ccccc24)NC(=O)[C@H](CCCCN)NC(=O)[C@H](Cc2c[nH]cn2)NC(=O)[C@H]([C@@H](C)O)NC(=O)[C@H](CCCCN)NC(=O)[C@H](CO)NC3=O)NC(=O)[C@H](CCCCN)NC(=O)[C@H](CC(=O)O)NC(=O)[C@H](CC(N)=O)NC(=O)[C@H](CC(=O)O)NC(=O)[C@@H]2CCCN2C1=O [compound 53] (H-DCLGFMRKCIPDNDKCCRPNLVCSKTHKWCKYVF-NH2; disulfide 2-17, 9-23, 16-30) | – | 380 nM | –
CC[C@H](C)[C@@H]1NC(=O)[C@@H]2CSSC[C@@H]3NC(=O)[C@H](C(C)C)NC(=O)[C@H](CC(C)C)NC(=O)[C@H](CC(N)=O)NC(=O)[C@@H]4CCCN4C(=O)[C@H](CCCNC(=N)N)NC(=O)[C@H](CSSC[C@H](NC(=O)[C@@H](N)CC(=O)O)C(=O)N[C@@H](CC(C)C)C(=O)NCC(=O)N[C@@H](Cc4ccccc4)C(=O)N[C@@H](CCSC)C(=O)N[C@@H](CCCNC(=N)N)C(=O)N[C@@H](CCCCN)C(=O)N2)NC(=O)[C@H](CSSC[C@@H](C(=O)N[C@@H](CCCCN)C(=O)N[C@@H](Cc2ccc(O)cc2)C(=O)N[C@H](C(=O)N[C@@H](Cc2ccccc2)C(N)=O)C(C)C)NC(=O)[C@H](Cc2c[nH]c4ccccc24)NC(=O)[C@H](CCCCN)NC(=O)[C@H](Cc2c[nH]cn2)NC(=O)[C@H]([C@@H](C)O)NC(=O)[C@H](CCCNC(=N)N)NC(=O)[C@H](CO)NC3=O)NC(=O)[C@H](CCCCN)NC(=O)[C@H](CC(=O)O)NC(=O)[C@H](CC(N)=O)NC(=O)[C@H](CCCNC(=N)N)NC(=O)[C@@H]2CCCN2C1=O [compound 67] (H-DCLGFMRKCIPRNDKCCRPNLVCSRTHKWCKYVF-NH2; disulfide 2-17, 9-23, 16-30) | 110 nM | – | –
CC[C@H](C)[C@@H]1NC(=O)[C@@H]2CSSC[C@@H]3NC(=O)[C@H](C(C)C)NC(=O)[C@H](CC(C)C)NC(=O)[C@H](CCCNC(=N)N)NC(=O)[C@@H]4CCCN4C(=O)[C@H](CCCNC(=N)N)NC(=O)[C@H](CSSC[C@H](NC(=O)[C@@H](N)CC(=O)O)C(=O)N[C@@H](CC(C)C)C(=O)NCC(=O)N[C@@H](Cc4ccccc4)C(=O)N[C@@H](CCSC)C(=O)N[C@@H](CCCNC(=N)N)C(=O)N[C@@H](CCCCN)C(=O)N2)NC(=O)[C@H](CSSC[C@@H](C(=O)N[C@@H](CCCCN)C(=O)N[C@@H](Cc2ccc(O)cc2)C(=O)N[C@H](C(=O)N[C@@H](Cc2ccccc2)C(N)=O)C(C)C)NC(=O)[C@H](Cc2c[nH]c4ccccc24)NC(=O)[C@H](CCCCN)NC(=O)[C@H](Cc2c[nH]cn2)NC(=O)[C@H]([C@@H](C)O)NC(=O)[C@H](CCCNC(=N)N)NC(=O)[C@H](CO)NC3=O)NC(=O)[C@H](CCCCN)NC(=O)[C@H](CC(=O)O)NC(=O)[C@H](CC(N)=O)NC(=O)[C@H](CC(=O)O)NC(=O)[C@@H]2CCCN2C1=O [compound 69] (H-DCLGFMRKCIPDNDKCCRPRLVCSRTHKWCKYVF-NH2; disulfide 2-17, 9-23, 16-30) | – | 170 nM | –
CC[C@H](C)[C@@H]1NC(=O)[C@@H]2CSSC[C@@H]3NC(=O)[C@H](C(C)C)NC(=O)[C@H](CC(C)C)NC(=O)[C@H](CC(N)=O)NC(=O)[C@@H]4CCCN4C(=O)[C@H](CCCNC(=N)N)NC(=O)[C@H](CSSC[C@H](NC(=O)[C@@H](N)CC(=O)O)C(=O)N[C@@H](CC(C)C)C(=O)NCC(=O)N[C@@H](Cc4ccccc4)C(=O)N[C@@H](CCSC)C(=O)N[C@@H](CCCNC(=N)N)C(=O)N[C@@H](CCCCN)C(=O)N2)NC(=O)[C@H](CSSC[C@@H](C(=O)N[C@@H](CCCCN)C(=O)N[C@@H](Cc2ccc(O)cc2)C(=O)N[C@@H](CCCNC(=N)N)C(=O)N[C@@H](Cc2ccccc2)C(N)=O)NC(=O)[C@H](Cc2c[nH]c4ccccc24)NC(=O)[C@H](CCCCN)NC(=O)[C@H](Cc2c[nH]cn2)NC(=O)[C@H]([C@@H](C)O)NC(=O)[C@H](CCCNC(=N)N)NC(=O)[C@H](CO)NC3=O)NC(=O)[C@H](CCCCN)NC(=O)[C@H](CC(=O)O)NC(=O)[C@H](CC(N)=O)NC(=O)[C@H](CC(=O)O)NC(=O)[C@@H]2CCCN2C1=O [compound 74] (H-DCLGFMRKCIPDNDKCCRPNLVCSRTHKWCKYRF-NH2; disulfide 2-17, 9-23, 16-30) | – | – | IC50 (Table 26, IonWorks Quattro, use, […]): 80 nM
CC[C@H](C)[C@@H]1NC(=O)[C@@H]2CSSC[C@@H]3NC(=O)[C@H](CCC(=O)O)NC(=O)[C@H](CC(C)C)NC(=O)[C@H](CC(N)=O)NC(=O)[C@@H]4CCCN4C(=O)[C@H](CCCNC(=N)N)NC(=O)[C@H](CSSC[C@H](NC(=O)[C@@H](N)CC(=O)O)C(=O)N[C@@H](CC(C)C)C(=O)NCC(=O)N[C@@H](Cc4ccccc4)C(=O)N[C@@H](CCSC)C(=O)N[C@@H](CCCNC(=N)N)C(=O)N[C@@H](CCCCN)C(=O)N2)NC(=O)[C@H](CSSC[C@@H](C(=O)N[C@@H](CCCCN)C(=O)N[C@@H](Cc2ccc(O)cc2)C(=O)N[C@H](C(=O)N[C@@H](Cc2ccccc2)C(N)=O)C(C)C)NC(=O)[C@H](Cc2c[nH]c4ccccc24)NC(=O)[C@H](CCCCN)NC(=O)[C@H](Cc2c[nH]cn2)NC(=O)[C@H]([C@@H](C)O)NC(=O)[C@H](CCCNC(=N)N)NC(=O)[C@H](CO)NC3=O)NC(=O)[C@H](CCCCN)NC(=O)[C@H](CC(=O)O)NC(=O)[C@H](CC(N)=O)NC(=O)[C@H](CC(=O)O)NC(=O)[C@@H]2CCCN2C1=O [compound 102] (H-DCLGFMRKCIPDNDKCCRPNLECSRTHKWCKYVF-NH2; disulfide 2-17, 9-23, 16-30) | – | 1400 nM | –
CC[C@H](C)[C@@H]1NC(=O)[C@@H]2CSSC[C@@H]3NC(=O)[C@H](C(C)C)NC(=O)[C@H](CC(C)C)NC(=O)[C@H](CC(N)=O)NC(=O)[C@@H]4CCCN4C(=O)[C@H](CCCNC(=N)N)NC(=O)[C@H](CSSC[C@H](NC(=O)[C@@H](N)CC(=O)O)C(=O)N[C@@H](CC(C)C)C(=O)NCC(=O)N[C@@H](Cc4ccccc4)C(=O)N[C@@H](CCSC)C(=O)N[C@@H](CCCNC(=N)N)C(=O)N[C@@H](CCCCN)C(=O)N2)NC(=O)[C@H](CSSC[C@@H](C(=O)N[C@@H](CCCCN)C(=O)N[C@@H](Cc2ccc(O)cc2)C(=O)N[C@H](C(=O)N[C@@H](Cc2ccccc2)C(N)=O)C(C)C)NC(=O)[C@H](Cc2c[nH]c4ccccc24)NC(=O)[C@H](CCCCN)NC(=O)[C@H](Cc2c[nH]cn2)NC(=O)[C@H]([C@@H](C)O)NC(=O)[C@H](CCCNC(=N)N)NC(=O)[C@H](C)NC3=O)NC(=O)[C@H](CCCCN)NC(=O)[C@H](CC(=O)O)NC(=O)[C@H](CC(N)=O)NC(=O)[C@H](CC(=O)O)NC(=O)[C@@H]2CCCN2C1=O [compound 142] (H-DCLGFMRKCIPDNDKCCRPNLVCARTHKWCKYVF-NH2; disulfide 2-17, 9-23, 16-30) | – | 470 nM | –
CC[C@H](C)[C@@H]1NC(=O)[C@@H]2CSSC[C@@H]3NC(=O)[C@H](C(C)C)NC(=O)[C@H](CC(C)C)NC(=O)[C@H](CC(N)=O)NC(=O)[C@@H]4CCCN4C(=O)[C@H](CCC(=O)O)NC(=O)[C@H](CSSC[C@H](NC(=O)[C@@H](N)CC(=O)O)C(=O)N[C@@H](CC(C)C)C(=O)NCC(=O)N[C@@H](Cc4ccccc4)C(=O)N[C@@H](CCSC)C(=O)N[C@@H](CCCNC(=N)N)C(=O)N[C@@H](CCCCN)C(=O)N2)NC(=O)[C@H](CSSC[C@@H](C(=O)N[C@@H](CCCCN)C(=O)N[C@@H](Cc2ccc(O)cc2)C(=O)N[C@H](C(=O)N[C@@H](Cc2ccccc2)C(N)=O)C(C)C)NC(=O)[C@H](Cc2c[nH]c4ccccc24)NC(=O)[C@H](CCCCN)NC(=O)[C@H](Cc2c[nH]cn2)NC(=O)[C@H]([C@@H](C)O)NC(=O)[C@H](CCCNC(=N)N)NC(=O)[C@H](CO)NC3=O)NC(=O)[C@H](CCCCN)NC(=O)[C@H](CC(=O)O)NC(=O)[C@H](CC(N)=O)NC(=O)[C@H](CC(=O)O)NC(=O)[C@@H]2CCCN2C1=O [compound 148] (H-DCLGFMRKCIPDNDKCCEPNLVCSRTHKWCKYVF-NH2; disulfide 2-17, 9-23, 16-30) | 220 nM | – | –
